Test results taken from article PMC11213860, “Competitive protein recruitment in artificial cells” (Communications Chemistry, 2024).

Key:
14-3-3γ = target: T1, 14-3-3γ (Homo sapiens, UniProt P61981); experiment: Fluorescence anisotropy assay, titration of 14-3-3γ to labeled peptide; type: binding; settings: ratio of KD values from fluorescence anisotropy
T1 construct: His-tagged full-length 14-3-3σ and 14-3-3γ were kindly provided by
T1 sequence (P61981 1-247): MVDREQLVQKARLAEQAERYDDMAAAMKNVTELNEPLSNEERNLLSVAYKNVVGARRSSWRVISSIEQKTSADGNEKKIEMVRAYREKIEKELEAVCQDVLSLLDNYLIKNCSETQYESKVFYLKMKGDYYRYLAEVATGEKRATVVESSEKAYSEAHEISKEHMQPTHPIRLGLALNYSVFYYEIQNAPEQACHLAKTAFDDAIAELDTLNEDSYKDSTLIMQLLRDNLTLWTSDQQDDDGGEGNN

T14-3-3 = experiment: Fluorescence anisotropy assay, titration of T14-3-3 to labeled peptides; type: binding; settings: Supplementary Table 1; unphosphorylated peptide, cf. Supplementary Fig. 7
Experimental: 14-3-3 was titrated in a 2-fold dilution series to 10 nM of fluorescently labeled peptide in coacervate buffer (20 mM HEPES, 100 mM KCl, pH 7.5) supplemented with 0.1% (v/v) of Tween 20 and 1 mg/mL of bovine serum albumin (BSA) to prevent aspecific hydrophobic interactions. Dilution series were prepared in low volume, non-binding polystyrene 384-well plates (Corning 4514 Black Round Bottom 384-well plates). Measurements were performed directly after plate preparation using a Tecan Spark plate reader at room temperature. The following settings were used: excitation 485 ± 20 nm; emission: 535 ± 25 nm; mirror: Dichroic 510; number of flashes: 30; integration time: 40 µs; settle time: 1 ms; gain: optimal; and Z-position: calculated from well. Wells containing only the labeled peptide were used to set as G-factor at 35 mAU. All data were analyzed using GraphPad Prism (version 10.0.3) and fitted using a four-parameter logistic model (4PL) to determine binding affinities (KD). All results are based on triplicates, with the mean and standard error determined by GraphPad.

BiExoS [change] peptide = experiment: fluorescence polarisation

**Q.** How did the “difference in bulk affinity of the peptide for the two isoforms (14-3-3σ vs 14-3-3γ)” value (14-3-3γ) turn out when `CC(C)C[C@H](NC(=O)[C@H](CO)NC(=O)CNC(=O)[C@H](CCC(=O)O)NC(=O)[C@H](CO)NC(=O)[C@H](CO)NC(=O)[C@@H]1CCCN1C(=O)[C@H](CO)NC(=O)[C@H](CO)NC(=O)[C@@H](NC(=O)[C@H](CC(N)=O)NC(=O)[C@H](Cc1ccccc1)NC(=O)[C@@H](NC(=O)[C@H](Cc1ccccc1)NC(=O)[C@H](C)NC(=O)[C@H](Cc1c[nH]cn1)NC(=O)[C@@H]1CCCN1C(=O)[C@@H](NC(=O)[C@H](COP(=O)(O)O)NC(=O)[C@H](Cc1ccc(O)cc1)NC(=O)[C@H](CCCNC(=N)N)NC(=O)[C@H](Cc1c[nH]cn1)NC(=O)[C@H](CCC(N)=O)NC(=O)CCCCCNC(=S)Nc1ccc2c(c1)C(=O)OC21c2ccc(O)cc2Oc2cc(O)ccc21)[C@@H](C)O)[C@@H](C)O)[C@@H](C)O)C(=O)N[C@@H](CO)C(=O)N[C@@H](CCC(N)=O)C(=O)N[C@@H](CCCNC(=N)N)C(=O)N[C@@H](CCC(N)=O)C(=O)N[C@@H](CCCNC(=N)N)C(=O)N[C@@H](CO)C(=O)N[C@H](C(=O)N[C@@H](COP(=O)(O)O)C(=O)N[C@H](C(=O)N1CCC[C@H]1C(=O)N[C@@H](CC(N)=O)C(=O)N[C@H](C(=O)N[C@@H](Cc1c[nH]cn1)C(N)=O)C(C)C)[C@@H](C)O)[C@@H](C)O` [FITC-c-Raf pS] was run?
**A.** Its value is 40 fold.

**Q.** “FITC-Ahx-QHRYSTPHAFTFNTSSPSSEGSLSQRQRSTSTPNVH-Ac [c-Raf S233/S259, unphosphorylated FITC-labeled c-Raf S233/S259 peptide]” was tested. Which “Binding mode to 14-3-3” value (T14-3-3) did it give?
**A.** Its value is “No binding”.

**Q.** How did the Kd (BiExoS [change] peptide) turn out when “His-tagged full-length 14-3-3γ (from UniProt P61981 1-247) (natural protein)” was run?
**A.** The Kd was 0.059 µM.

B1: His-tagged full-length 14-3-3σ (natural protein)
chain: MERASLIQKAKLAEQAERYEDMAAFMKGAVEKGEELSCEERNLLSVAYKNVVGGQRAAWRVLSSIEQKSNEEGSEEKGPEVREYREKVETELQGVCDTVLGLLDSHLIKEAGDAESRVFYLKMKGDYYRYLAEVATGDDKKRIIDSARSAYQEAMDISKKEMPPTNPIRLGLALNFSVFHYEIANSPEEAISLAKTTFDEAMADLHTLSEDSYKDSTLIMQLLRDNLTLWTADNAGEEGGEAPQEPQS
modifications: in the coacervate experiments labelled with Cy5 or DyLight 405 (NHS ester, aspecific)
**Q.** With B1 as the molecule, how does the Kd (BiExoS [change] peptide) read?
**A.** The Kd was 23 µM.
